Laboratory results as given in ChEMBL document CHEMBL1201862, “PubChem BioAssay data set” (2004).
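Cells were grown in 96-well plates and exposed to each compound for 48 hours at five concentrations; endpoints were interpolated linearly between bracketing concentrations, or set to the highest concentration if not reached. GI50 marks 50% less growth.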 Activity calls are given as the source filed them. Cut-off read from the data, not from the text of the source: active = GI50 up to about 1.1 µM and inactive = higher.

Assays:
Assay in all cases: inhibition of tumour cell growth, NCI panel, 48 h
SK-MEL-28 = test system: SK-MEL-28
SNB-75 = test system: SNB-75
HCT-116 = test system: HCT-116
UACC-62 = test system: UACC-62
MDA-MB-231 = test system: MDA-MB-231
NCI/ADR-RES = test system: NCI/ADR-RES
EKVX = test system: EKVX
SN12C = test system: SN12C
LOX IMVI = test system: LOX IMVI
OVCAR-8 = test system: OVCAR-8
NCI-H460 = test system: NCI-H460
RPMI-8226 = test system: RPMI-8226
KM12 = test system: KM12
MDA-MB-435 = test system: MDA-MB-435
SK-OV-3 = test system: SK-OV-3
IGROV-1 = test system: IGROV-1
CCRF-CEM = test system: CCRF-CEM
MCF7 = test system: MCF7
RXF 393 = test system: RXF 393
Hs-578T = test system: Hs-578T
TK-10 = test system: TK-10
A549 = test system: A549
COLO 205 = test system: COLO 205
NCI-H23 = test system: NCI-H23
OVCAR-3 = test system: OVCAR-3
HCT-15 = test system: HCT-15
CAKI-1 = test system: CAKI-1
BT-549 = test system: BT-549
U-251 = test system: U-251
MDA-N = test system: MDA-N
SF-539 = test system: SF-539
SK-MEL-5 = test system: SK-MEL-5
HOP-62 = test system: HOP-62
DU-145 = test system: DU-145
UO-31 = test system: UO-31
OVCAR-5 = test system: OVCAR-5
NCI-H226 = test system: NCI-H226
K562 = test system: K562
PC-3 = test system: PC-3
SW-620 = test system: SW-620
SNB-19 = test system: SNB-19
M14 = test system: M14
A498 = test system: A498
SK-MEL-2 = test system: SK-MEL-2
SF-268 = test system: SF-268
SR = test system: SR
MOLT-4 = test system: MOLT-4
HT-29 = test system: HT-29
HL-60 = test system: HL-60
T47D = test system: T47D
HCC 2998 = test system: HCC 2998
SF-295 = test system: SF-295
786-0 = test system: 786-0
ACHN = test system: ACHN
UACC-257 = test system: UACC-257
HOP-92 = test system: HOP-92
OVCAR-4 = test system: OVCAR-4
Malme-3M = test system: Malme-3M
NCI-H522 = test system: NCI-H522

Measured: GI50

Clc1nc(NC23CC4CC(CC(C4)C2)C3)nc(NC23CC4CC(CC(C4)C2)C3)n1
inactive: SK-MEL-28 > 100 µM | SNB-75 18 µM | HCT-116 15.6 µM | UACC-62 > 100 µM | MDA-MB-231 > 34.3 µM | NCI/ADR-RES 46 µM | EKVX > 89.9 µM | SN12C > 83.4 µM | LOX IMVI > 100 µM | OVCAR-8 70.1 µM | NCI-H460 61 µM | RPMI-8226 19.1 µM | KM12 41.2 µM | MDA-MB-435 92.3 µM | SK-OV-3 > 76.6 µM | IGROV-1 > 100 µM | CCRF-CEM 17 µM | MCF7 12.6 µM | RXF 393 17.9 µM | Hs-578T 25 µM | TK-10 > 100 µM | A549 43.9 µM | COLO 205 > 67.3 µM | NCI-H23 38.5 µM | OVCAR-3 50.8 µM | CAKI-1 > 100 µM | BT-549 > 61.4 µM | U-251 26.7 µM | MDA-N 46.8 µM | SF-539 > 75.9 µM | SK-MEL-5 47.3 µM | HOP-62 44.2 µM | DU-145 56.6 µM | UO-31 23.4 µM | OVCAR-5 > 100 µM | NCI-H226 97.9 µM | K562 4.62 µM | PC-3 1.41 µM | SW-620 62.4 µM | SNB-19 > 100 µM | M14 73.1 µM | A498 > 100 µM | SK-MEL-2 19.3 µM | SF-268 > 83.4 µM | SR 29 µM | MOLT-4 17.5 µM | HT-29 66.1 µM | HL-60 19.9 µM | T47D 10.5 µM | HCC 2998 53.5 µM | SF-295 16.4 µM | 786-0 52.5 µM | ACHN > 34.8 µM | UACC-257 50.7 µM | HOP-92 17.3 µM | OVCAR-4 83 µM | Malme-3M > 100 µM
34.7 µM: HCT-15

CCCC#CC(O)(C(=O)OC1CCN(C)CC1)C1CCCCC1 (stereo unspecified)
inactive: SK-MEL-28 > 100 µM | SNB-75 57 µM | HCT-116 > 100 µM | UACC-62 > 100 µM | MDA-MB-231 > 100 µM | NCI/ADR-RES > 100 µM | EKVX > 100 µM | SN12C > 100 µM | LOX IMVI > 100 µM | OVCAR-8 > 100 µM | NCI-H460 > 100 µM | RPMI-8226 > 100 µM | KM12 > 100 µM | MDA-MB-435 > 100 µM | SK-OV-3 > 100 µM | IGROV-1 > 100 µM | CCRF-CEM > 100 µM | MCF7 > 100 µM | RXF 393 > 100 µM | Hs-578T 14.1 µM | TK-10 > 100 µM | A549 > 100 µM | COLO 205 94.6 µM | NCI-H23 > 100 µM | OVCAR-3 > 100 µM | CAKI-1 > 100 µM | BT-549 88.7 µM | U-251 > 100 µM | MDA-N > 100 µM | SF-539 > 100 µM | SK-MEL-5 38.9 µM | HOP-62 52 µM | DU-145 > 100 µM | UO-31 29 µM | OVCAR-5 > 100 µM | NCI-H226 94.4 µM | K562 > 100 µM | PC-3 48.3 µM | SW-620 > 100 µM | SNB-19 > 100 µM | M14 58.6 µM | A498 94.6 µM | SK-MEL-2 > 100 µM | SF-268 > 100 µM | SR > 100 µM | MOLT-4 91.6 µM | HT-29 55.2 µM | T47D > 100 µM | HCC 2998 > 100 µM | SF-295 > 100 µM | 786-0 > 100 µM | ACHN > 100 µM | UACC-257 46.6 µM | HOP-92 85.7 µM | OVCAR-4 > 100 µM | Malme-3M > 100 µM
> 100 µM: HCT-15

CCOC(=O)CCC(NC(=O)c1ccc(Nc2nc3ccccc3n3cccc23)cc1)C(=O)OCC (stereo unspecified)
inactive: SK-MEL-28 47.6 µM | SNB-75 26.7 µM | HCT-116 31.2 µM | UACC-62 23.1 µM | NCI-H522 22.9 µM | MDA-MB-231 21.5 µM | NCI/ADR-RES 19.5 µM | EKVX 41.5 µM | LOX IMVI 26.1 µM | OVCAR-8 19.6 µM | NCI-H460 28.7 µM | RPMI-8226 23.1 µM | KM12 31.1 µM | MDA-MB-435 30.2 µM | SK-OV-3 24.1 µM | IGROV-1 35.5 µM | CCRF-CEM 54.8 µM | MCF7 16.6 µM | RXF 393 12.2 µM | Hs-578T 35.6 µM | TK-10 22.5 µM | A549 39.6 µM | COLO 205 53.8 µM | NCI-H23 35.9 µM | OVCAR-3 18.2 µM | CAKI-1 33.6 µM | BT-549 23.3 µM | U-251 23 µM | MDA-N 28.4 µM | SF-539 18.8 µM | SK-MEL-5 31 µM | HOP-62 23.7 µM | DU-145 28.9 µM | UO-31 44.9 µM | OVCAR-5 45.6 µM | K562 38.5 µM | PC-3 16.4 µM | SW-620 81.7 µM | SNB-19 42.1 µM | M14 51.6 µM | A498 70.1 µM | SK-MEL-2 20 µM | SF-268 37.8 µM | SR 15.3 µM | MOLT-4 18.3 µM | HT-29 17.9 µM | HL-60 > 100 µM | HCC 2998 29.8 µM | SF-295 25.2 µM | 786-0 17 µM | ACHN 20.6 µM | UACC-257 26.2 µM | HOP-92 32.1 µM | Malme-3M 37.2 µM
active: T47D < 0.01 µM
29.7 µM: HCT-15
